# In PubChem BioAssay AID328 (DTP/NCI, 2004):
# Inconclusive results and toxic doses are left out.
# Tested on: BDF1 mice, P388 leukemia ip, median survival T/C
# Experiment: NCI In Vivo Anticancer Drug Screen. Data for tumor model P388 Leukemia (intraperitoneal) in B6D2F1 (BDF1) mice
# Conditions: endpoint: median survival time, higher = longer survival
# Summary of the method: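 Each value expresses how treatment altered survival: treated-mouse outcome over vehicle-mouse outcome, both groups bearing the transplanted tumour.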
# [1] = dose: 50.0 mg/kg/injection, schedule: Q01DX009 (ip), vehicle: saline with Tween-80
# [2] = dose: 50.0 mg/kg/injection, schedule: Q04DX003 (ip), vehicle: saline with Tween-80
# [3] = dose: 100.0 mg/kg/injection, schedule: Q04DX003 (ip), vehicle: saline with Tween-80
# [4] = dose: 100.0 mg/kg/injection, schedule: Q01DX009 (ip), vehicle: saline with Tween-80
# [5] = dose: 200.0 mg/kg/injection, schedule: Q01DX009 (ip), vehicle: saline with Tween-80
# [6] = dose: 50.0 mg/kg/injection, schedule: Q04DX003 (ip), vehicle: saline
# [7] = dose: 100.0 mg/kg/injection, schedule: Q01DX009 (ip), vehicle: saline
# [8] = dose: 100.0 mg/kg/injection, schedule: Q04DX003 (ip), vehicle: saline
# [9] = dose: 100.0 mg/kg/injection, schedule: Q04DX003 (ip), vehicle: Klucel (hydroxypropylcellulose) (HPC)
# [10] = dose: 200.0 mg/kg/injection, schedule: Q04DX003 (ip), vehicle: Klucel (hydroxypropylcellulose) (HPC)
smiles,measurement,setting,value
NC(CSC(c1ccccc1)(c1ccccc1)c1ccc(Cl)cc1)C(=O)O (stereo unspecified),T/C,"dose: 33.0 mg/kg/injection, schedule: Q04DX003 (ip), vehicle: saline with Tween-80",190 % of control
same,T/C,[1],272 % of control
same,T/C,[2],190 % of control
same,T/C,"dose: 75.0 mg/kg/injection, schedule: Q04DX003 (ip), vehicle: saline with Tween-80",272 % of control
O.Oc1ccccc1C=NCCC[N-]CCCN=Cc1ccccc1O.[Co],T/C,[1],114 % of control
CC1(C)O[C@@H]2C[C@H]3[C@@H]4CCC5=CC(=O)C=C[C@]5(C)[C@@]4(F)[C@@H](O)C[C@]3(C)[C@]2(C(=O)CO)O1,T/C,[1],100 % of control
same,T/C,[3],108 % of control
same,T/C,"dose: 200.0 mg/kg/injection, schedule: Q04DX003 (ip), vehicle: saline with Tween-80",100 % of control
CCOC(=O)c1ccc2c3c([nH]c2c1C)-c1ccccc1CC3,T/C,[1],120 % of control
same,T/C,[4],111 % of control
same,T/C,[5],118 % of control
Cc1cc(=O)[nH]c2c1ccc1[nH]c(=O)cc(C)c12,T/C,"dose: 100.0 mg/kg/injection, schedule: Q01DX001 (ip), vehicle: Klucel (hydroxypropylcellulose) (HPC)",91 % of control
same,T/C,"dose: 200.0 mg/kg/injection, schedule: Q01DX001 (ip), vehicle: Klucel (hydroxypropylcellulose) (HPC)",87 % of control
CC1(C)c2ccccc2C(=O)C1Cc1ccccc1 (stereo unspecified),T/C,"dose: 50.0 mg/kg/injection, schedule: Q01DX009 (ip), vehicle: saline",93 % of control
same,T/C,[6],109 % of control
same,T/C,[7],98 % of control
same,T/C,[8],119 % of control
same,T/C,"dose: 200.0 mg/kg/injection, schedule: Q01DX009 (ip), vehicle: saline",121 % of control
same,T/C,"dose: 200.0 mg/kg/injection, schedule: Q04DX003 (ip), vehicle: saline",119 % of control
same,T/C,"dose: 400.0 mg/kg/injection, schedule: Q01DX009 (ip), vehicle: saline",119 % of control
same,T/C,"dose: 400.0 mg/kg/injection, schedule: Q04DX003 (ip), vehicle: saline",109 % of control
CCCCCCCCCCCCCCCCCCCC,T/C,"dose: 6.25 mg/kg/injection, schedule: Q04DX003 (ip), vehicle: other",100 % of control
same,T/C,"dose: 12.5 mg/kg/injection, schedule: Q04DX003 (ip), vehicle: other",100 % of control
same,T/C,"dose: 25.0 mg/kg/injection, schedule: Q04DX003 (ip), vehicle: other",100 % of control
same,T/C,"dose: 50.0 mg/kg/injection, schedule: Q01DX009 (ip), vehicle: other",100 % of control
same,T/C,"dose: 100.0 mg/kg/injection, schedule: Q01DX009 (ip), vehicle: other",100 % of control
CCCCCCCCNC12CC3CC(CC(C3)C1)C2,T/C,"dose: 6.25 mg/kg/injection, schedule: Q04DX003 (ip), vehicle: saline",104 % of control
same,T/C,"dose: 12.5 mg/kg/injection, schedule: Q04DX003 (ip), vehicle: saline",108 % of control
same,T/C,"dose: 25.0 mg/kg/injection, schedule: Q04DX003 (ip), vehicle: saline",116 % of control
same,T/C,[6],100 % of control
same,T/C,[8],108 % of control
CC(CCl)N(CCCl)Cc1cccc(Nc2ncnc3nc[nH]c23)c1 (stereo unspecified),T/C,"dose: 0.8 mg/kg/injection, schedule: Q01DX009 (ip), vehicle: saline",152 % of control
same,T/C,"dose: 1.5 mg/kg/injection, schedule: Q01DX009 (ip), vehicle: saline",154 % of control
same,T/C,"dose: 2.0 mg/kg/injection, schedule: Q01DX009 (ip), vehicle: saline",164 % of control
same,T/C,"dose: 2.5 mg/kg/injection, schedule: Q01DX009 (ip), vehicle: saline",185 % of control
same,T/C,"dose: 3.0 mg/kg/injection, schedule: Q01DX009 (ip), vehicle: saline",160 % of control
same,T/C,"dose: 5.0 mg/kg/injection, schedule: Q01DX009 (ip), vehicle: saline",175 % of control
same,T/C,"dose: 10.0 mg/kg/injection, schedule: Q01DX009 (ip), vehicle: saline",180 % of control
same,T/C,"dose: 10.0 mg/kg/injection, schedule: Q04DX003 (ip), vehicle: saline",86 % of control
O=C(CBr)c1ccc(/C=C/c2ccc(Cl)cc2)cc1,T/C,[1],95 % of control
same,T/C,[2],109 % of control
same,T/C,[4],120 % of control
same,T/C,[3],109 % of control
OC(CBr)C(O)C(O)C(O)CBr (stereo unspecified),T/C,"dose: 50.0 mg/kg/injection, schedule: Q01DX009 (ip), vehicle: Klucel (hydroxypropylcellulose) (HPC)",105 % of control
same,T/C,"dose: 62.5 mg/kg/injection, schedule: Q01DX010 (ip), vehicle: saline",104 % of control
same,T/C,"dose: 125.0 mg/kg/injection, schedule: Q01DX001 (ip), vehicle: carboxymethylcellulose (CMC)",120 % of control
same,T/C,"dose: 125.0 mg/kg/injection, schedule: Q01DX010 (ip), vehicle: carboxymethylcellulose (CMC)",105 % of control
same,T/C,"dose: 125.0 mg/kg/injection, schedule: Q01DX010 (ip), vehicle: saline",108 % of control
same,T/C,"dose: 250.0 mg/kg/injection, schedule: Q01DX010 (ip), vehicle: carboxymethylcellulose (CMC)",110 % of control
same,T/C,"dose: 250.0 mg/kg/injection, schedule: Q01DX010 (ip), vehicle: saline",91 % of control
same,T/C,"dose: 400.0 mg/kg/injection, schedule: Q01DX009 (ip), vehicle: Klucel (hydroxypropylcellulose) (HPC)",87 % of control
same,T/C,"dose: 1000.0 mg/kg/injection, schedule: Q01DX001 (ip), vehicle: carboxymethylcellulose (CMC)",170 % of control
O=c1c(Cl)c2cc3c(cc2c2ccccc12)nc1ccccc1n3-c1ccccc1,T/C,"dose: 12.5 mg/kg/injection, schedule: Q01DX001 (ip), vehicle: saline with Tween-80",88 % of control
same,T/C,"dose: 25.0 mg/kg/injection, schedule: Q01DX001 (ip), vehicle: saline with Tween-80",88 % of control
CCC(CO)NC(=O)/C=C/c1ccccc1 (stereo unspecified),T/C,[5],91 % of control
same,T/C,"dose: 400.0 mg/kg/injection, schedule: Q01DX009 (ip), vehicle: saline with Tween-80",91 % of control
O=C1NC(=O)C(F)(F)C(O)N1 (stereo unspecified),T/C,"dose: 12.0 mg/kg/injection, schedule: Q01DX009 (ip), vehicle: saline",115 % of control
same,T/C,"dose: 65.0 mg/kg/injection, schedule: Q01DX009 (ip), vehicle: saline",154 % of control
same,T/C,[7],154 % of control
same,T/C,"dose: 150.0 mg/kg/injection, schedule: Q01DX009 (ip), vehicle: saline",166 % of control
same,T/C,"dose: 220.0 mg/kg/injection, schedule: Q01DX009 (ip), vehicle: saline",179 % of control
same,T/C,"dose: 320.0 mg/kg/injection, schedule: Q01DX009 (ip), vehicle: saline",195 % of control
O=C(O)CCCCCNC(=O)OCc1ccccc1,T/C,"dose: 100.0 mg/kg/injection, schedule: Q01DX009 (ip), vehicle: gum acacia",112 % of control
same,T/C,"dose: 100.0 mg/kg/injection, schedule: Q04DX003 (ip), vehicle: gum acacia",100 % of control
same,T/C,"dose: 200.0 mg/kg/injection, schedule: Q01DX009 (ip), vehicle: gum acacia",104 % of control
same,T/C,"dose: 200.0 mg/kg/injection, schedule: Q04DX003 (ip), vehicle: gum acacia",100 % of control
same,T/C,"dose: 400.0 mg/kg/injection, schedule: Q01DX009 (ip), vehicle: gum acacia",108 % of control
same,T/C,"dose: 400.0 mg/kg/injection, schedule: Q04DX003 (ip), vehicle: gum acacia",116 % of control
COc1cccc(/C=C/C(=O)O)c1OC,T/C,"dose: 25.0 mg/kg/injection, schedule: Q04DX003 (ip), vehicle: water",106 % of control
same,T/C,"dose: 50.0 mg/kg/injection, schedule: Q04DX003 (ip), vehicle: water",103 % of control
same,T/C,"dose: 100.0 mg/kg/injection, schedule: Q04DX003 (ip), vehicle: water",112 % of control
same,T/C,"dose: 200.0 mg/kg/injection, schedule: Q04DX003 (ip), vehicle: water",106 % of control
same,T/C,"dose: 400.0 mg/kg/injection, schedule: Q04DX003 (ip), vehicle: water",97 % of control
Cc1c(Cl)cccc1NC(=O)c1ccccc1C(=O)O,T/C,[9],91 % of control
same,T/C,[10],95 % of control
same,T/C,"dose: 400.0 mg/kg/injection, schedule: Q04DX003 (ip), vehicle: Klucel (hydroxypropylcellulose) (HPC)",100 % of control
O=c1c2ccccc2c2nc3ccc4c(=O)c5ccccc5c5nc6ccc1c2c6c3c45,T/C,"dose: 50.0 mg/kg/injection, schedule: Q01DX005 (ip), vehicle: saline with Tween-80",100 % of control
same,T/C,"dose: 100.0 mg/kg/injection, schedule: Q01DX005 (ip), vehicle: saline with Tween-80",100 % of control
S=C1N(c2ccccc2)CN(C2CCCCC2)CN1c1ccccc1,T/C,[1],89 % of control
same,T/C,[4],90 % of control
same,T/C,[5],89 % of control
CCN(CC)N=Nc1ccccc1-c1nc(N)c2ccccc2n1,T/C,"dose: 50.0 mg/kg/injection, schedule: Q04DX003 (ip), vehicle: Klucel (hydroxypropylcellulose) (HPC)",157 % of control
same,T/C,[9],161 % of control
same,T/C,[10],180 % of control
CC(=O)NCCSC(=O)C(=O)SCCNC(C)=O,T/C,"dose: 75.0 mg/kg/injection, schedule: Q01DX009 (ip), vehicle: Klucel (hydroxypropylcellulose) (HPC)",100 % of control
same,T/C,"dose: 150.0 mg/kg/injection, schedule: Q01DX009 (ip), vehicle: Klucel (hydroxypropylcellulose) (HPC)",95 % of control
